# Columns and labels:
# [1] = test system: RGC-5 (rat ganglion cell-5); assay: Retinal neuron protection under necroptosis inducing (TCZ; TNFα+cycloheximide+zVAD) condition, LDH assay; format: cell-based; settings: RGC-5, TCZ 15 hours, compound 20 μM, DMSO control = 100%
# Method: The following experiment was performed to evaluate the retinal neuron protection effect of the compounds of the invention under necroptosis inducing condition.
# The retinal ganglion cell line RGC-5 (rat ganglion cell-5) was cultured in DMEM (Dulbecco's modified Eagle's medium) supplemented with 10% FBS (fetal bovine serum) and 1% penicillin/streptomycin. The cells were distributed in a 96-well plate at the density of 8×10^3 cells/well, followed by culture in a 37° C., CO2 incubator for 12 hours. The medium supplemented with TNFα (10 ng/ml), cycloheximide (10 μg/ml), and zVAD (10 μM) (TCZ) was treated with DMSO (0.1%) alone (control) or with the compounds of the invention (20 μM), followed by additional culture in a 37° C., CO2 incubator for 15 hours to induce cell death.
# The level of cell death was measured by LDH (lactate dehydrogenase, Roche) assay. The level of the control LDH under TCZ condition was regarded as 100%, and the level of LDH in the cell group cultured in normal medium (10% FBS, DMEM) for the same time was used for the measurement of the relative rate of cell death. The compounds of examples of the invention were treated to wells, each compound for three wells, and then each experiment was performed in triplicate.
# [2] = molecular target: RIPK1 (receptor-interacting serine/threonine-protein kinase 1) (Homo sapiens (Human), UniProt Q13546); assay: RIPK1 inhibitory activity, autophosphorylation of immuno-precipitated RIPK1 with [32P]γ-ATP; format: biochemical; settings: for activity at 100 µM: compound 100 μM, remaining RIPK1 phosphorylation; for inhibition at 100 µM: Table 2, 100 μM
# Chain of RIPK1 (receptor-interacting serine/threonine-protein kinase 1) (Q13546 whole entry, species assumed): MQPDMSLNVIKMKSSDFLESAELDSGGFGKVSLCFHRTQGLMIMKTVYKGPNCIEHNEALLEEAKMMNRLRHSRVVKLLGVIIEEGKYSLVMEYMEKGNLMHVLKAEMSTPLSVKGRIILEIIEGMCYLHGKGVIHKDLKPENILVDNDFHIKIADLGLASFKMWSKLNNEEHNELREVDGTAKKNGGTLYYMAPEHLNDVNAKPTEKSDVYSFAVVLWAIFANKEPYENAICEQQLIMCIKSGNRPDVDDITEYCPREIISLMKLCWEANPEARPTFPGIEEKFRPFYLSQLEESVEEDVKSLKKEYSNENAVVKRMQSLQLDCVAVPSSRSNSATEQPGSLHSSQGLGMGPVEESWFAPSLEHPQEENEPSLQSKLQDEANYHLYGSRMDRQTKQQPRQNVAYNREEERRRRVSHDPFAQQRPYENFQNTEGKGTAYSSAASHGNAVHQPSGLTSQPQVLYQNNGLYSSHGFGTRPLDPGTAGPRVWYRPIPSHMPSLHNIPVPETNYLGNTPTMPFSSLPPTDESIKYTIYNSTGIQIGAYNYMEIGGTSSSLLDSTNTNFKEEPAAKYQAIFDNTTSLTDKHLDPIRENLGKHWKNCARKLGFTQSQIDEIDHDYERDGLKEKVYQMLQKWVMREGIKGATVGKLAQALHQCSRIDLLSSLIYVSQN
# Method: The following experiment was performed to evaluate RIPK1 (receptor-interacting serine/threonine-protein kinase 1) inhibitory activity of the compounds of examples of the invention.
# RIPK1 enzyme immuno-precipitated in HEK293 (Human Embryonic Kidney 293) cell lysate was used as kinase. The experiment was performed according to the method described in Cell. 12; 137(6):1112-23(2009). RIPK1 protein was over-expressed in HEK293 cell line, to which lysis buffer (50 mM Tris-Cl [pH 8.0], 150 mM NaCl, 1 mM EDTA, 1% NP-40, 0.4 mM phenylmethylsulfonyl fluoride (PMSF)) was added for cell lysis. Centrifugation was performed at 13,000 rpm for 10 minutes to separate the supernatant. RIPK1 monoclonal antibody (610459, BD Bioscience) and A/G agarose beads (sc-2003, Santa Cruz Biotechnology) were added thereto, followed by immuno-precipitation in a 4° C. rotator for 12 hours.
# The immune complex was washed with lysis buffer twice and then washed with kinase assay buffer (20 mM HEPES [pH7.6], 2 mM DTT, 1 mM NaF, 1 mM Na3Vo4, 20 mM β-glycerophosphate, 20 mM PNPP, 20 mM MgCl2, 20 mM MnCl2, 1 mM Benzamidie, and 1 mM EDTA) lastly. Kinase assay buffer and the compound were added to the RIPK1 immuno-precipitate, followed by reaction in a 24° C. constant-temperature water bath for 15 minutes. Additional reaction was induced for 30 minutes at 30° C. after 100 μM of ATP and 10 μCi[^32P] γ-ATP were added thereto. The reaction mixture was washed with kinase assay buffer once, to which protein loading buffer was added, followed by heating at 100° C. for 3 minutes. The reaction mixture was then loaded on 8% SDS-PAGE gel. Radioactive image of the phosphorylated RIPK1 was detected with FLA-7000 (GE healthcare). The image Quant TL program was used for the quantification.
# [3] = test system: RGC-5 (rat ganglion cell); assay: Retinal nerve protection under oxygen-glucose deprivation (OGD), LDH assay; format: cell-based; settings: RGC-5, OGD 15 hours, compound 20 μM, DMSO control = 100%
# Method: The following experiment was performed to evaluate the protective effect of the compounds of examples of the invention on the retinal nerve under oxygen-glucose deprivation condition.
# The retinal ganglion cell line RGC-5 (rat ganglion cell) was cultured in DMEM (Dulbecco's modified Eagle's medium) supplemented with 10% FBS (fetal bovine serum) and 1% penicillin/streptomycin. The cells were distributed in a 96-well plate at the density of 8×10^3 cells/well, followed by culture in a 37° C., CO2 incubator for 12 hours. The cells were washed with PBS once and the medium was replaced with glucose free DMEM. The cells were treated with either DMSO (0.1%) alone (control) or with the compounds of examples (20 μM) shown in Table 3, followed by culture in an anaerobic incubator (10% H2, 5% CO2, 85% N2, 37° C., chamber (ThermoForma, USA)) for 15 hours to induce cell death.
# The level of cell death was measured by LDH (lactate dehydrogenase, Roche) assay. The LDH assay is a method for measuring the activity of LDH released from the damaged cells into the culture medium. NAD^+ was reduced to NADH and H^+ by LDH, and the bond of tetrazolium salt INT ring was cleaved by diaphorase to form formazan. Absorbance of the formazan was measured at 490 nm by using Victor 3 (PerkinElmer). The absorbance reflects the amount of dead cells.
# The level of the control LDH under oxygen-glucose deprivation condition was regarded as 100%, and the level of LDH in the cell group cultured in normal medium (10% FBS, DMEM) for the same time was regarded as 0%. Based on that, the levels of LDH of the cell groups treated with the compounds of the invention under oxygen-glucose deprivation condition were converted into the relative ratio of cell death. The compounds of examples of the invention were treated to wells, each compound for three wells, and then each experiment was performed in triplicate.
Compound,activity at 100 µM [2] [%],inhibition at 100 µM [2] [%],Death of retinal nerve cell (%) [1] [%],Death of retinal nerve cell (%) [3] [%]
"O=C(c1cc2c(Br)cnc(Cl)c2s1)N1CCOCC1 [Example 1, (4-bromo-7-chlorothieno[2,3-c]pyridine-2-yl)(morpholino)methanone]",52.5 ± 7.8,,79.3 ± 3.2,
"O=C(c1cc2c(Br)cncc2s1)N1CCOCC1 [Example 3, (4-bromothieno[2,3-c]pyridine-2-yl)(morpholino)methanone]",52 ± 2.8,,79.6 ± 3.2,
"O=C(c1cc2c(-c3ccc(F)cc3)cnc(Cl)c2s1)N1CCOCC1 [Example 5, (7-chloro-4-(4-fluorophenyl)thieno[2,3-c]pyridine-2-yl)(morpholino)methanone]",85.1 ± 24.7,,57.6 ± 19.2,62.1 ± 3.7
"Fc1ccc(-c2cccc3sc(CN4CCOCC4)cc23)cc1 [Example 7, 4-((4-(4-fluorophenyl)benzo[b]thiophene-2-yl)methyl)morpholine]",87.1 ± 17.7,,63.2 ± 3.9,90.0 ± 3.3
"O=C(c1cc2cc(Cl)ccc2[nH]1)N1CCOCC1 [Example 12, (5-chloro-1H-indole-2-yl)(morpholino)methanone]",60,,50.5 ± 7.4,35.7 ± 0.1
"Cc1ccc2[nH]c(C(=O)N3CCOCC3)nc2c1 [Example 13, (5-methyl-1H-benzo[d]imidazole-2-yl)(morpholino)methanone]",83.4 ± 16.1,,71.2 ± 7.0,69.6 ± 2.0
"O=C(c1nc2cc(Br)ccc2[nH]1)N1CCOCC1 [Example 14, (5-bromo-1H-benzo[d]imidazole-2-yl)(morpholino)methanone]",62 ± 6.2,,81.1 ± 15.2,82.1 ± 11.2
"O=C(c1cc2ccccc2o1)N1CCOCC1 [Example 15, benzofuran-2-yl(morpholino)methanone]",85.6 ± 26.7,,72.6 ± 6.8,42.7 ± 2.0
"O=C(c1cc2cc(Br)ccc2o1)N1CCOCC1 [Example 16, (5-bromobenzofuran-2-yl)(morpholino)methanone]",88 ± 24.7,,59.4 ± 11.3,19.3 ± 1.4
"O=C(c1cc2c(Nc3ccc(F)cc3F)cccc2s1)N1CCOCC1 [Example 58, (4-(2,4-difluorophenylamino)benzo[b]thiophene-2-yl)(morpholino)methanone]",78.5 ± 30.4,,,89.4 ± 6.4
"O=C(c1cc2c(Oc3ccc(F)cc3)cccc2s1)N1CCOCC1 [Example 59, (4-(4-fluorophenoxy)benzo[b]thiophene-2-yl)(morpholino)methanone]",21 ± 7.1,≥ 50,,59.5 ± 14.7
"O=C(c1cc2c(CCc3ccc(F)cc3)cccc2s1)N1CCOCC1 [Example 60, (4-(4-fluorophenethyl)benzo[b]thiophene-2-yl)(morpholino)methanone]",22 ± 15.6,≥ 50,,89.8 ± 10.7
"O=C(c1cc2c(OCc3ccc(F)cc3)cccc2s1)N1CCOCC1 [Example 61, (4-(4-fluorobenzyloxy)benzo[b]thiophene-2-yl)(morpholino)methanone]",22.5 ± 12,≥ 50,,53.5 ± 14.5

# The next lines start with results.
activity at 100 µM [2] [%],inhibition at 100 µM [2] [%],Compound,Death of retinal nerve cell (%) [1] [%],Death of retinal nerve cell (%) [3] [%]
82.5 ± 5,,"O=C(c1cc2c(S(=O)(=O)Cc3ccc(F)cc3)cccc2s1)N1CCOCC1 [Example 62, (4-(4-fluorobenzylsulfonyl)benzo[b]thiophene-2-yl)(morpholino)methanone]",,59.3 ± 16.3
83.6 ± 12.7,,"COS(=O)c1ccc(-c2cccc3sc(C(=O)N4CCOCC4)cc23)cc1 (stereo not drawn) [Example 64, methyl 4-(2-(morpholine-4-carbonyl)benzo[b]thiophene-4-yl)benzene sulfinate]",,63.0 ± 17.8
11.5 ± 4.9,,"Cl.O=C(c1cc2c(-c3ccc(F)nc3)cccc2s1)N1CCOCC1 [Example 66, (4-(6-fluoropyridine-3-yl)benzo[b]thiophene-2-yl)(morpholino)methanone hydrochloride]",,45.2 ± 10.5
49.5 ± 3.5,≥ 50,"O=C(c1cc2c(Cc3ccc(F)cc3)cccc2s1)N1CCOCC1 [Example 67, (4-(4-fluorobenzyl)benzo[b]thiophene-2-yl)(morpholino)methanone]",,59.3 ± 14.9
33.5 ± 12,≥ 50,"O=C(c1cc2c(Nc3ccc(F)cc3)cccc2s1)N1CCOCC1 [Example 68, (4-(4-fluorophenylamino)benzo[b]thiophene-2-yl)(morpholino)methanone]",,58.3 ± 11.9
22.5 ± 16.3,≥ 50,"CN(c1ccc(F)cc1)c1cccc2sc(C(=O)N3CCOCC3)cc12 [Example 69, (4-((4-fluorophenyl)(methyl)amino)benzo[b]thiophene-2-yl)(morpholino)methanone]",,69.4 ± 10.9
65 ± 32.5,,"O=C(c1cc2c(NS(=O)(=O)c3ccc(F)cc3)cccc2s1)N1CCOCC1 [Example 70, 4-fluoro-N-(2-(morpholine-4-carbonyl)benzo[b]thiophene-4-yl)benzenesulfonamide]",,48.7 ± 10.3
87 ± 4.2,,"O=C(c1cc2c(SCc3ccc(F)cc3)cccc2s1)N1CCOCC1 [Example 71, (4-(4-fluorobenzylthio)benzo[b]thiophene-2-yl)(morpholino)methanone]",,89.1 ± 14.9
7 ± 8.5,,"Cn1c(C#N)ccc1-c1cccc2sc(C(=O)N3CCOCC3)cc12 [Example 72, 1-methyl-5-(2-(morpholine-4-carbonyl)benzo[b]thiophene-4-yl)-1H-pyrrole-2-carbonitrile]",,58.5 ± 16.1
22 ± 19.8,≥ 50,"Cn1cc(-c2cccc3sc(C(=O)N4CCOCC4)cc23)cn1 [Example 73, (4-(1-methyl-1H-pyrazol-4-yl)benzo[b]thiophene-2-yl)(morpholino)methanone]",,62.3 ± 10.1
